Earlier results as cited in patent US20230357798A1, “GENE CORRECTION FOR X-CGD IN HEMATOPOIETIC STEM AND PROGENITOR CELLS” (THE BOARD OF TRUSTEES OF THE LELAND STANFORD JUNIOR …, priority 2020, published 2023).
Like-named read-outs stand apart in the source and are kept apart here.

Tests used:
[1] = tested on: CD34^+ HSPCs
[2] = tested on: CD34^+ HSPCs; conditions: for cell viability relative to edited controls: single agent, CD34+ HSPCs

| Compound | enhancement of HDR ([1]; combined with Trichostatin A and NSC 15520, CRISPR/Cpf1, ssODN donor) [fold] | enhancement of HDR ([1]; single agent, CD34+ HSPCs) [fold] | HSPC viability ([2]; combined with Trichostatin A and NSC 15520) [%] | cell viability relative to edited controls [2] [%] |
| --- | --- | --- | --- | --- |
| O=c1cc(N2CCOCC2)oc2c1ccc1ccccc12 [NU7026] | 2.6 | 1.7 | 65 | ~80 |
| O=c1cc(N2CCOCC2)oc2c(-c3cccc4c3sc3ccccc34)cccc12 [NU7441] | – | 2 | – | ~65 |
